Tests used:
[1] = system: Smooth muscle cells (SMC); assay: Oxidized LDL-exposed aortic smooth muscle cells: MCP-1, superoxide anion, NFκB; assay type: cell-based, rabbit; settings: DETA-NONOate 100 μM pre-exposure, oxLDL 30 μg/ml
Experimental: (§1) Methods and Results. Smooth muscle cells (SMC) were isolated from normal rabbit aortae by explant method. Cells were then exposed to oxidized LDL (30 μg/ml) (which is known to induce vascular cells to synthesize MCP-1). […] All of these effects of oxidized LDL cholesterol were reduced by previous exposure of the SMC to the NO-donor DETA-NONOate (100 μM) (p<0.05). To determine if NO exerted its effect at a transcriptional level, SMC and COS cells were transfected with a 400 bp fragment of the MCP-1 promoter. Enhanced promoter activity by oxLDL was inhibited by DETA-NO.

MCP-1 promoter = MCP-1 promoter activity in transfected SMC and COS cells; assay type: cell-based; settings: 400 bp promoter fragment
Experimental: as §1

[2] = system: hypercholesterolemic rabbits; assay: Oral L-lysine in cholesterol-fed rabbits: vasorelaxation and histomorphometry; assay type: in vivo, rabbit; settings: ten weeks
From the text: FIG. 9 is a set of dose-response curves showing the effect of chronic lysine administration on endothelium dependent vasodilation in hypercholesterolemic rabbits. […] Chronic administration of lysine was just as effective as arginine in restoring vascular function and structure. (See Ex. 14)
L-lysine is a basic amino acid like L-arginine, but is not known to be metabolized by NO synthase to NO. Therefore, the following results were unexpected. New Zealand white rabbits were fed a normal or high cholesterol chow (n=18). Half of the animals on the cholesterol diet also received oral L-lysine. After ten weeks, the thoracic aortae were harvested and bioassayed for vascular NO synthesis, and histomorphometry to assess lesion formation was performed as described above.

platelets = assay: ADP-initiated platelet aggregation (nephelometry), platelets from treated rabbits; assay type: in vivo, rabbit; settings: N-methylarginine 10^−4 M in vitro
Experimental: The effect of L-arginine supplementation on platelet reactivity in rabbits that had normal chow (Control; n=6), a 1% cholesterol diet (Chol; n=5), or a 1% cholesterol diet supplemented with oral arginine (Arg; n=6), as detailed above, was examined. Arterial blood obtained after central ear artery cannulation was anticoagulated with 13 mM sodium citrate. Platelet-rich suspension was prepared by washing platelets in calcium-free Krebs-Henseleit solution and resuspending them in Tyrode's solution with albumin. Aggregation was initiated by addition of adenosine diphosphate and monitored by standard nephelometric techniques. In platelets derived from Chol animals, aggregation was not different in rate or maximum extent in comparison to platelets from Control animals (A, in FIG. 2). By contrast, aggregation of platelets from Arg animals was reduced by 50% (B, in FIG. 2).
Therefore, the anti-platelet effect of chronic oral arginine administration can be credited to an increased synthesis of endogenous NO. Furthermore, NO synthesis may be induced in both the platelets and the endothelium.

[3] = system: human aortic endothelial cells (HAEC); assay: Flow-exposed human aortic endothelial cells: THP-1 monocyte binding after oxLDL or LPS/TNF; assay type: cell-based; settings: oxLDL 30 μg/ml
Experimental: FIG. 6. Stimulation of cultured endothelial cells with fluid flow causes them to secrete nitric oxide. Flow-induced secretion of nitric oxide decreases endothelial adhesiveness induced by oxidized LDL cholesterol (oxLDL; 30 μg/ml). Exposure of human aortic endothelial cells to oxLDL increased the ex vivo binding of monocytes when compared to Control. In comparison to cells not exposed to flow (static), previous exposure to flow inhibited the monocyte adhesion induced by oxLDL. These effects of flow were blocked by NO synthase inhibitors and mimicked by NO donors (PAPA-NO) or cyclic GMP (cGMP). Bars represent mean±SEM. *p<0.05; **p<0.01. (See Ex. 8)
Methods and Results: Confluent monolayers of human aortic endothelial cells (HAEC) were exposed to static or fluid flow conditions for 4 hours (fluid flow stimulates the production of endogenous nitric oxide). Medium was then replaced and cells were then incubated with native LDL (50 μg/ml), oxidized LDL (30 μg/ml), or LPS (10 ng/ml)+TNF-α (10 U/ml) for an additional 4 hours. Functional binding assays utilizing THP-1 monocytes were then performed. Superoxide production by HAECs was monitored by lucigenin chemiluminescence and expression of the adhesion molecules VCAM-1 and ICAM-1 was quantitated by flow cytometry. […] Previous exposure to fluid flow inhibited endothelial adhesiveness for monocytes (FIG. 6) and the other sequelae of exposure to cytokines or oxidized lipoprotein.

[4] = system: hypercholesterolemic rabbits; settings: vs 1% cholesterol diet alone, ten weeks
From the text: At ten weeks animals were sacrificed for studies of platelet and vascular reactivity, and histomorphometry.

Structure (SMILES): NCCN(CCN)/[N+]([O-])=N/O [DETA-NONOate]
- activity of NFκB induced by oxidized LDL [1]: reduced
- expression of MCP-1 induced by oxidized LDL [1]: reduced
- generation of superoxide anion induced by oxidized LDL [1]: reduced
- MCP-1 promoter activity enhanced by oxLDL (MCP-1 promoter): inhibited

Structure (SMILES): NCCCC[C@H](N)C(=O)O [L-lysine]
- vascular NO activity (endothelium-dependent vasorelaxation) [2]: just as effective as L-arginine
- vascular lesion formation / plaque area [2]: marked reduction
- vascular NO activity (endothelium-dependent vasorelaxation) ([2]; listed as lysine): improved

Structure (SMILES): CN[C@@H](CCCNC(=N)N)C(=O)O [N-methylarginine, reference compound]
- reversal of the arginine-induced reduction of platelet reactivity (platelets): could be reversed
- reversal of the arginine-induced reduction of platelet reactivity (platelets; listed as LNMMA): reverses

Structure (SMILES): CCCN(CCCN)/[N+]([O-])=N/O [PAPA-NONOate]
- mimicry of the effects of flow on monocyte adhesion [3]: mimicked the effects of flow
- mimicry of the effects of flow on monocyte adhesion ([3]; listed as PAPA-NO): mimicked

Structure (SMILES): Nc1nc2c(ncn2[C@@H]2O[C@@H]3COP(=O)(O)O[C@H]3[C@H]2O)c(=O)[nH]1 [cGMP, cyclic guanosine monophosphate]
- mimicry of the effects of flow on monocyte adhesion [3]: mimicked

Structure (SMILES): CSCC[C@H](N)C(=O)O [methionine]
- endothelium-dependent relaxation [4]: not different
- intimal thickness [4]: not different
- platelet aggregation [4]: not different
